Read-outs that look alike come from different tables or passages of the source.
Experiments:
[1] = tested on: human colon carcinoma HT29; test: Proliferation assay (IC50) under aerobic and hypoxic conditions, HT29; format: cell-based; details: for IC50: Homo sapiens, 4 h drug exposure, sulforhodamine B; for HCR: hypoxic cytotoxicity ratio = IC50 aerobic/IC50 hypoxic
Method: (§1) Compounds representative of the invention were evaluated under both aerobic and hypoxic conditions in a proliferation assay (IC50), using two cell lines: human colon carcinoma HT29, and human cervical carcinoma SiHa (Table 1).
(§2) Drug exposures were performed in 96-well plates (Nunc) either using a 37 DC humidified incubator (20% O2, 5% CO2) or in the incubator compartment (37° C.) of an anaerobic chamber (Shell Lab) where palladium catalyst scrubbed gas (90% N2, 5% H2, 5% CO2) ensures severe anoxia (<0.001% O2). For each experiment, compounds were simultaneously tested under both oxic and hypoxic conditions and included TPZ as an internal control. An 8-methyl-5-nitroquinoline derivative, SN 24349, known to require very low oxygen concentrations for bioactivation (Siim et al., Br. J. Cancer 1994, 70, 596-603) was used to confirm that strict hypoxia was present during the experiment. […] Cell cultures were grown in αMEM (Gibco) containing 5% heat inactivated FCS and maintained in exponential growth phase. For each individual experiment an appropriate number of cells were seeded (HT29=1100; SiHa=1500) into wells in αMEM+10% FCS+10 mM added glucose+100 μM 2′-deoxycytidine (2′dCyd), and allowed to attach for 2-3 h. High glucose (final concentration 17 mM) and the presence of 2′-dCyd minimize hypoxia-induced cell cycle arrest. Cultures were then exposed to drugs, using 3-fold serial dilutions in duplicate, for a further 4 h. Subsequently cells were washed free of compound using complete media (without glucose/2′-dCyd) and allowed to grow for 5 (oxic) or 6 (anoxic) days. Plates were stained with sulforhodamine B as described previously (Wilson et al., J. Med. Chem. 1989, 32, 31-38) and IC50 values determined.
(§3) HCR=Hypoxic cytotoxicity ratio is defined as the ratio of IC50 values under aerobic and hypoxic conditions (IC50 aerobic/IC50 hypoxic).

[2] = tested on: human cervical carcinoma SiHa; test: Proliferation assay (IC50) under aerobic and hypoxic conditions, SiHa; format: cell-based; details: for IC50: Homo sapiens, 4 h drug exposure, sulforhodamine B; for HCR: hypoxic cytotoxicity ratio = IC50 aerobic/IC50 hypoxic
Method: as §1, §2, §3

[3] = HT-29, hypoxic (anaerobic chamber, <0.001% O2), then 6 days growth, read-out: IC50 (μM) hypoxic
[4] = HT-29, oxic (20% O2), then 5 days growth, read-out: IC50 (μM) oxic
[5] = hypoxic (anaerobic chamber, <0.001% O2), then 6 days growth, read-out: IC50 (μM) hypoxic
[6] = oxic (20% O2), then 5 days growth, read-out: IC50 (μM) oxic

Row | IC50 [1, 3] | IC50 [1, 4] | IC50 [2, 5] | IC50 [2, 6] | melting point | Structure (SMILES) | HCR [1] | HCR [2]
1 | 5.4 ± 2.8 µM | 261 ± 90 µM | 2.6 ± 0.4 µM | 142 ± 6 µM | 77 to 79 °C | COCCN(C)CCCNc1n[n+]([O-])c2cc3c(cc2[n+]1[O-])CCC3 [Compound 53, N^1-(1,4-Dioxido-7,8-dihydro-6H-indeno[5,6-e][1,2,4]triazin-3-yl)-N^3-(2-methoxyethyl)-N^3-methyl-1,3-propanediamine] | 81 ± 60 | 55 ± 6
2 | 21 ± 8 µM | 385 ± 14 µM | 8.8 ± 1.7 µM | 357 ± 35 µM | 158 to 160 °C | [O-][n+]1nc(NCCCN2CCOCC2)[n+]([O-])c2cc3c(cc21)CCC3 [Compound 61, N-[3-(4-Morpholinyl)propyl]-7,8-dihydro-6H-indeno[5,6-e][1,2,4]triazin-3-amine 1,4-Dioxide] | 20 ± 5 | 44 ± 12
3 | 14.2 µM | 325 ± 70 µM | 5.3 ± 0.4 µM | 239 ± 22 µM | 140 to 141 °C | [O-][n+]1nc(NCCCCN2CCOCC2)[n+]([O-])c2cc3c(cc21)CCC3 [Compound 63, N-[4-(4-Morpholinyl)butyl]-7,8-dihydro-6H-indeno[5,6-e][1,2,4]triazin-3-amine 1,4-Dioxide] | 28 | 46 ± 8
4 | 2.6 ± 0.03 µM | 154 ± 19 µM | 1.1 ± 0.5 µM | 111 ± 51 µM | 120 to 124 °C | CCNc1n[n+]([O-])c2cc3c(cc2[n+]1[O-])CN(C)CC3 [Compound 259, N-Ethyl-7-methyl-6,7,8,9-tetrahydro[1,2,4]triazino[6,5-g]isoquinolin-3-amine 1,4-Dioxide] | 59 ± 7 | 100 ± 2
5 | 4.8 ± 1.3 µM | 154 ± 51 µM | 2.4 ± 0.1 µM | 147 ± 37 µM | 164 to 165 °C | CCc1n[n+]([O-])c2cc3c(cc2[n+]1[O-])CC(CN1CCOCC1)C3 (stereo not drawn) [Compound 144, 3-Ethyl-7-(4-morpholinylmethyl)-7,8-dihydro-6H-indeno[5,6-e][1,2,4]triazine 1,4-Dioxide] | 31 ± 2 | 62 ± 19
6 | 2.4 ± 0.1 µM | 61 ± 6 µM | 0.3 ± 0.02 µM | 36 ± 10 µM | 149 to 151 °C | CN(C)CCNc1n[n+]([O-])c2cc3c(cc2[n+]1[O-])CCO3 [Compound 198, N^1-(1,4-Dioxido-6,7-dihydrofuro[3,2-g][1,2,4]benzotriazin-3-yl)-N^2,N^2-dimethyl-1,2-ethanediamine] | 23 ± 0.2 | 87 ± 9
7 | 2.7 ± 0.2 µM | 117 ± 47 µM | 1.1 ± 0.1 µM | 73 ± 14 µM | 170 to 172 °C | CC1CCCC(C)N1CCNc1n[n+]([O-])c2cc3c(cc2[n+]1[O-])CCC3 (stereo not drawn) [Compound 39, N-[2-(2,6-Dimethyl-1-piperidinyl)ethyl]-7,8-dihydro-6H-indeno[5,6-e][1,2,4]triazin-3-amine 1,4-Dioxide] | 42 ± 15 | 65 ± 13
8 | 1.4 ± 0.1 µM | 72 ± 2 µM | 0.71 ± 0.01 µM | 67 ± 5 µM | 181 to 184 °C | [O-][n+]1nc(NCCN2CCCCCC2)[n+]([O-])c2cc3c(cc21)CCC3 [Compound 47, N-[2-(1-Azepanyl)ethyl]-7,8-dihydro-6H-indeno[5,6-e][1,2,4]triazin-3-amine 1,4-Dioxide] | 52 ± 1 | 95 ± 6
9 | 2.4 ± 0.4 µM | 401 ± 236 µM | 1 ± 0.5 µM | 80 ± 7 µM | 179 to 181 °C | [O-][n+]1cn[n+]([O-])c2cc3c(cc21)CCC3 [Compound 65, 7,8-Dihydro-6H-indeno[5,6-e][1,2,4]triazine 1,4-Dioxide] | 226 ± 153 | 155 ± 117
10 | 6.3 ± 2.1 µM | 315 ± 84 µM | 2 ± 1.1 µM | 152 ± 38 µM | 129 to 131 °C | COCCCN(C)CCNc1n[n+]([O-])c2cc3c(cc2[n+]1[O-])CCC3 [Compound 33, N^1-(1,4-Dioxido-7,8-dihydro-6H-indeno[5,6-e][1,2,4]triazin-3-yl)-N^2-(3-methoxypropyl)-N^2-methyl-1,2-ethanediamine] | 52 ± 4 | 92 ± 30
11 | 1.5 µM | 38 ± 10 µM | 0.31 µM | 25 ± 6 µM | 152 to 154 °C | CN(C)CCNc1n[n+]([O-])c2cc3c(cc2[n+]1[O-])CCCO3 [Compound 242, N^1-(1,4-Dioxido-7,8-dihydro-6H-chromeno[6,7-e][1,2,4]triazin-3-yl)-N^2,N^2-dimethyl-1,2-ethanediamine] | 19 | 60
12 | 8.9 ± 0.4 µM | 218 ± 54 µM | 5.05 ± 0.01 µM | 216 µM | 150 to 154 °C | [O-][n+]1nc(CCCN2CCOCC2)[n+]([O-])c2cc3c(cc21)CCO3 [Compound 216, 3-[3-(4-Morpholinyl)propyl]-7,8-dihydrofuro[2,3-g][1,2,4]benzotriazine 1,4-Dioxide] | 25 ± 6 | 43
13 | 12.4 µM | 99 ± 9 µM | 3.3 ± 0.3 µM | 74 ± 27 µM | 133 to 135 °C | CCCN(CCC)CCNc1nc2ccc3c(c2[n+]([O-])n1)CCC3 [Compound 11, N^1-(1-Oxido-8,9-dihydro-7H-indeno[5,4-e][1,2,4]triazin-3-yl)-N^2,N^2-dipropyl-1,2-ethanediamine] | 7 | 23 ± 10
14 | 13 ± 1.3 µM | 1040 ± 28 µM | 8 ± 0.4 µM | 831 ± 30 µM | 130 to 131 °C | CC1Cc2cc3c(cc2C1)[n+]([O-])c(CCCO)n[n+]3[O-] (stereo not drawn) [Compound 105, 3-(7-Methyl-1,4-dioxido-7,8-dihydro-6H-indeno[5,6-e][1,2,4]triazin-3-yl)-1-propanol] | 80 ± 2 | 104 ± 4
15 | 3 µM | 255 ± 53 µM | 1.6 µM | 226 ± 46 µM | 153 to 156 °C | CN(C)CCNc1n[n+]([O-])c2c3c(ccc2[n+]1[O-])CCC3 [Compound 7, N^1,N^1-Dimethyl-N^2-(1,4-dioxido-8,9-dihydro-7H-indeno[5,4-e][1,2,4]triazin-3-yl)-1,2-ethanediamine] | 67 | 99
16 | 9.6 ± 3.6 µM | 708 ± 178 µM | 3.4 ± 0.7 µM | 376 ± 10 µM | 187 to 190 °C | CCN(CC)CCNc1n[n+]([O-])c2cc3c(cc2[n+]1[O-])OCC3 [Compound 210, N^1-(1,4-Dioxido-7,8-dihydrofuro[2,3-g][1,2,4]benzotriazin-3-yl)-N^2,N^2-diethyl-1,2-ethanediamine] | 113 ± 53 | 122 ± 25
17 | 3.5 ± 0.3 µM | 187 ± 98 µM | 1.2 ± 0.1 µM | 91 ± 3 µM | 148 to 151 °C | COC1CCN(CCNc2n[n+]([O-])c3cc4c(cc3[n+]2[O-])CCC4)CC1 [Compound 43, N-[2-(4-Methoxy-1-piperidinyl)ethyl]-7,8-dihydro-6H-indeno[5,6-e][1,2,4]triazin-3-amine 1,4-Dioxide] | 56 ± 33 | 78 ± 11
18 | 117 µM | 495 µM | 23 µM | > 500 µM | > 300 °C (dec.) | Nc1n[n+]([O-])c2cc3c(cc2[n+]1[O-])OCC3 [Compound 205, 7,8-Dihydrofuro[2,3-g][1,2,4]benzotriazin-3-amine 1,4-Dioxide] | 4 | 
19 | 5.8 ± 2.9 µM | 186 ± 58 µM | 1.3 ± 0.4 µM | 101 ± 25 µM | 165 to 168 °C | [O-][n+]1nc(NCCN2CCCCC2)[n+]([O-])c2cc3c(cc21)CCC3 [Compound 37, N-[2-(1-Piperidinyl)ethyl]-7,8-dihydro-6H-indeno[5,6-e][1,2,4]triazin-3-amine 1,4-Dioxide] | 49 ± 35 | 143

Source: patent publication US7989451B2, “Tricyclic 1,2,4-triazine oxides and compositions for therapeutic use in cancer treatments” (Auckland Uniservices Limited, priority 2005, dated 2011)
